In patent US20260285850A1, “SUBSTITUTED OXAZOLIDINONES AND IMIDAZOLINONES AS HERBICIDES” (FMC CORPORATION, priority 2023, published 2026):

Legend:
Type in all cases: in vivo
[1] = system: sedge, umbrella (small-flower umbrella sedge, Cyperus difformis); assay: Test B flooded paddy test, visual plant response rating 0-100; conditions: 250 g ai/ha, Flood, applied to paddy water, evaluated after 13 days
Outline: (§1)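 Treatment occurs at the 2-leaf stage by adding compound to floodwater standing 3 cm above the soil, a level kept for the whole test. Plants stay in the greenhouse 13 days before visual comparison with controls.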

rice (Oryza sativa) = assay: as above; conditions: 250 g ai/ha, Flood, applied to paddy water, evaluated after 13 days
Outline: as §1

[2] = system: barnyardgrass (Echinochloa crusgalli); assay: as above; conditions: 250 g ai/ha, Flood, applied to paddy water, evaluated after 13 days
Outline: as §1

[3] = system: ducksalad (Heteranthera limosa); assay: as above; conditions: 250 g ai/ha, Flood, applied to paddy water, evaluated after 13 days
Outline: as §1

corn (Zea mays) [4] = assay: Test A preemergence soil spray, visual injury rating 0-100; conditions: 10 days, 0 = no effect, 100 = complete control; for Corn plant response rating (0-100): 31 g ai/ha; for Corn plant response rating (0 to 100 scale): 125 g ai/ha
Outline: (§2)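 Plants were grown in a loam soil-sand blend and treated with test chemical in a non-phytotoxic solvent mixture containing surfactant, either sprayed on soil preemergence or applied postemergence to 2-10 cm plants. After 10 days in a greenhouse, injury was scored visually against untreated controls, 0 meaning no effect and 100 complete control.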

kochia (Bassia scoparia) [5] = assay: as above; conditions: 10 days, 0 = no effect, 100 = complete control; for Kochia plant response rating (0-100): 31 g ai/ha; for Kochia plant response rating (0 to 100 scale): 125 g ai/ha
Outline: as §2

[6] = system: ragweed (common ragweed, Ambrosia artemisiifolia); assay: as above; conditions: 10 days, 0 = no effect, 100 = complete control; for Ragweed plant response rating (0-100): 31 g ai/ha; for Ragweed plant response rating (0 to 100 scale): 125 g ai/ha
Outline: as §2

[7] = system: blackgrass (Alopecurus myosuroides); assay: as above; conditions: 10 days, 0 = no effect, 100 = complete control; for Blackgrass plant response rating (0-100): 31 g ai/ha; for Blackgrass plant response rating (0 to 100 scale): 125 g ai/ha
Outline: as §2

[8] = system: wheat (Triticum aestivum); assay: as above; conditions: 10 days, 0 = no effect, 100 = complete control; for Wheat plant response rating (0-100): 31 g ai/ha; for Wheat plant response rating (0 to 100 scale): 125 g ai/ha
Outline: as §2

[9] = system: ryegrass, Italian (italian ryegrass, Lolium multiflorum); assay: as above; conditions: 10 days, 0 = no effect, 100 = complete control; for Ryegrass, Italian plant response rating (0-100): 31 g ai/ha; for Ryegrass, Italian plant response rating (0 to 100 scale): 125 g ai/ha
Outline: as §2

soybean (Glycine max) [10] = assay: as above; conditions: 10 days, 0 = no effect, 100 = complete control; for Soybean plant response rating (0-100): 31 g ai/ha; for Soybean plant response rating (0 to 100 scale): 125 g ai/ha
Outline: as §2

[11] = system: oat, wild (wild oat, Avena fatua); assay: as above; conditions: 10 days, 0 = no effect, 100 = complete control; for Oat, Wild plant response rating (0-100): 31 g ai/ha; for Oat, Wild plant response rating (0 to 100 scale): 125 g ai/ha
Outline: as §2

[12] = system: barnyardgrass (Echinochloa crus-galli); assay: as above; conditions: 10 days, 0 = no effect, 100 = complete control; for Barnyardgrass plant response rating (0-100): 31 g ai/ha; for Barnyardgrass plant response rating (0 to 100 scale): 125 g ai/ha
Outline: as §2

[13] = system: palmer (palmer amaranth, palmer pigweed, Amaranthus palmeri); assay: as above; conditions: 10 days, 0 = no effect, 100 = complete control; for Amaranth, Palmer plant response rating (0-100): 31 g ai/ha; for Amaranth, Palmer plant response rating (0 to 100 scale): 125 g ai/ha
Outline: as §2

corn (Zea mays) [14] = assay: Test A postemergence application, visual injury rating 0-100; conditions: Postemergence
Outline: as §2

kochia (Bassia scoparia) [15] = assay: as above; conditions: Postemergence
Outline: as §2

[16] = system: ragweed (common ragweed, Ambrosia artemisiifolia); assay: as above; conditions: Postemergence
Outline: as §2

[17] = system: horseweed (Erigeron canadensis); assay: as above; conditions: Postemergence
Outline: as §2

[18] = system: blackgrass (Alopecurus myosuroides); assay: as above; conditions: Postemergence
Outline: as §2

[19] = system: galium (catchweed bedstraw, Galium aparine); assay: as above; conditions: Postemergence
Outline: as §2

[20] = system: wheat (Triticum aestivum); assay: as above; conditions: Postemergence
Outline: as §2

[21] = system: ryegrass, Italian (italian ryegrass, Lolium multiflorum); assay: as above; conditions: Postemergence
Outline: as §2

soybean (Glycine max) [22] = assay: as above; conditions: Postemergence
Outline: as §2

[23] = system: oat, wild (wild oat, Avena fatua); assay: as above; conditions: Postemergence
Outline: as §2

[24] = system: barnyardgrass (Echinochloa crus-galli); assay: as above; conditions: Postemergence
Outline: as §2

[25] = system: palmer (palmer amaranth, palmer pigweed, Amaranthus palmeri); assay: as above; conditions: Postemergence
Outline: as §2

[26] = 31 g ai/ha, greenhouse 10 days, 0 no effect, 100 complete control
[27] = 125 g ai/ha, 10 days, 0 is no effect, 100 is complete control

Compound: CC1(C(=O)NC2C=CC(C(=O)ON=Cc3ccccc3)C2)CN(c2cc(F)cc(F)c2)C(=O)O1 (stereo not drawn) [Compound 68]
- Plant response rating, Sedge, Umbrella (0 to 100 scale, 0 is no effect and 100 is complete control) [1]: 98
- Plant response rating, Rice (0 to 100 scale, 0 is no effect and 100 is complete control) (rice (Oryza sativa)): 40
- Plant response rating, Barnyardgrass (0 to 100 scale, 0 is no effect and 100 is complete control) [2]: 85
- Plant response rating, Ducksalad (0 to 100 scale, 0 is no effect and 100 is complete control) [3]: 95
- Corn plant response rating (0-100) (corn (Zea mays) [4]): 0
- Corn plant response rating (0 to 100 scale) (corn (Zea mays) [4]): 80
- Kochia plant response rating (0-100) (kochia (Bassia scoparia) [5]): 80
- Kochia plant response rating (0 to 100 scale) (kochia (Bassia scoparia) [5]): 90
- Ragweed plant response rating (0-100) [6]: 0
- Ragweed plant response rating (0 to 100 scale) [6]: 20
- Blackgrass plant response rating (0-100) [7]: 50
- Blackgrass plant response rating (0 to 100 scale) [7]: 70
- Wheat plant response rating (0-100) [8]: 80
- Wheat plant response rating (0 to 100 scale) [8]: 90
- Ryegrass, Italian plant response rating (0-100) [9]: 70
- Ryegrass, Italian plant response rating (0 to 100 scale) [9]: 80
- Soybean plant response rating (0-100) (soybean (Glycine max) [10]): 0
- Soybean plant response rating (0 to 100 scale) (soybean (Glycine max) [10]): 70
- Oat, Wild plant response rating (0-100) [11]: 60
- Oat, Wild plant response rating (0 to 100 scale) [11]: 90
- Barnyardgrass plant response rating (0-100) [12]: 90
- Barnyardgrass plant response rating (0 to 100 scale) [12]: 100
- Amaranth, Palmer plant response rating (0-100) [13]: 100
- Amaranth, Palmer plant response rating (0 to 100 scale) [13]: 100
- Corn plant response rating (0 to 100 scale) (corn (Zea mays) [14]; [26]): 80
- Corn plant response rating (0 to 100 scale) (corn (Zea mays) [14]; [27]): 100
- Kochia plant response rating (0 to 100 scale) (kochia (Bassia scoparia) [15]; [26]): 80
- Kochia plant response rating (0 to 100 scale) (kochia (Bassia scoparia) [15]; [27]): 90
- Ragweed plant response rating (0 to 100 scale) [16, 26]: 0
- Ragweed plant response rating (0 to 100 scale) [16, 27]: 80
- Horseweed plant response rating (0 to 100 scale) [17, 26]: 50
- Horseweed plant response rating (0 to 100 scale) [17, 27]: 90
- Blackgrass plant response rating (0 to 100 scale) [18, 26]: 70
- Blackgrass plant response rating (0 to 100 scale) [18, 27]: 90
- Galium plant response rating (0 to 100 scale) [19, 26]: 90
- Galium plant response rating (0 to 100 scale) [19, 27]: 90
- Wheat plant response rating (0 to 100 scale) [20, 26]: 80
- Wheat plant response rating (0 to 100 scale) [20, 27]: 90
- Ryegrass, Italian plant response rating (0 to 100 scale) [21, 26]: 90
- Ryegrass, Italian plant response rating (0 to 100 scale) [21, 27]: 100
- Soybean plant response rating (0 to 100 scale) (soybean (Glycine max) [22]; [26]): 90
- Soybean plant response rating (0 to 100 scale) (soybean (Glycine max) [22]; [27]): 100
- Oat, Wild plant response rating (0 to 100 scale) [23, 26]: 30
- Oat, Wild plant response rating (0 to 100 scale) [23, 27]: 90
- Barnyardgrass plant response rating (0 to 100 scale) [24, 26]: 90
- Barnyardgrass plant response rating (0 to 100 scale) [24, 27]: 90
- Amaranth, Palmer / Pigweed, Palmer plant response rating (0 to 100 scale) [25, 26]: 90
- Amaranth, Palmer / Pigweed, Palmer plant response rating (0 to 100 scale) [25, 27]: 90

Compound: CSCCOC(=O)C1C=CC(NC(=O)C2(C)CN(c3cc(Cl)cc(Cl)c3)C(=O)O2)C1 (stereo not drawn) [Compound 69]
- Plant response rating, Sedge, Umbrella (0 to 100 scale, 0 is no effect and 100 is complete control) [1]: 95
- Plant response rating, Rice (0 to 100 scale, 0 is no effect and 100 is complete control) (rice (Oryza sativa)): 50
- Plant response rating, Barnyardgrass (0 to 100 scale, 0 is no effect and 100 is complete control) [2]: 85
- Plant response rating, Ducksalad (0 to 100 scale, 0 is no effect and 100 is complete control) [3]: 60
- Corn plant response rating (0-100) (corn (Zea mays) [4]): 0
- Corn plant response rating (0 to 100 scale) (corn (Zea mays) [4]): 60
- Kochia plant response rating (0-100) (kochia (Bassia scoparia) [5]): 40
- Kochia plant response rating (0 to 100 scale) (kochia (Bassia scoparia) [5]): 90
- Ragweed plant response rating (0-100) [6]: 0
- Ragweed plant response rating (0 to 100 scale) [6]: 20
- Blackgrass plant response rating (0-100) [7]: 40
- Blackgrass plant response rating (0 to 100 scale) [7]: 60
- Wheat plant response rating (0-100) [8]: 30
- Wheat plant response rating (0 to 100 scale) [8]: 70
- Ryegrass, Italian plant response rating (0-100) [9]: 30
- Ryegrass, Italian plant response rating (0 to 100 scale) [9]: 80
- Soybean plant response rating (0-100) (soybean (Glycine max) [10]): 20
- Soybean plant response rating (0 to 100 scale) (soybean (Glycine max) [10]): 50
- Oat, Wild plant response rating (0-100) [11]: 0
- Oat, Wild plant response rating (0 to 100 scale) [11]: 60
- Barnyardgrass plant response rating (0-100) [12]: 60
- Barnyardgrass plant response rating (0 to 100 scale) [12]: 90
- Amaranth, Palmer plant response rating (0-100) [13]: 90
- Amaranth, Palmer plant response rating (0 to 100 scale) [13]: 90
- Corn plant response rating (0 to 100 scale) (corn (Zea mays) [14]; [26]): 100
- Corn plant response rating (0 to 100 scale) (corn (Zea mays) [14]; [27]): 100
- Kochia plant response rating (0 to 100 scale) (kochia (Bassia scoparia) [15]; [26]): 80
- Kochia plant response rating (0 to 100 scale) (kochia (Bassia scoparia) [15]; [27]): 80
- Ragweed plant response rating (0 to 100 scale) [16, 26]: 50
- Ragweed plant response rating (0 to 100 scale) [16, 27]: 70
- Horseweed plant response rating (0 to 100 scale) [17, 26]: 70
- Horseweed plant response rating (0 to 100 scale) [17, 27]: 80
- Blackgrass plant response rating (0 to 100 scale) [18, 26]: 90
- Blackgrass plant response rating (0 to 100 scale) [18, 27]: 90
- Galium plant response rating (0 to 100 scale) [19, 26]: 80
- Galium plant response rating (0 to 100 scale) [19, 27]: 80
- Wheat plant response rating (0 to 100 scale) [20, 26]: 90
- Wheat plant response rating (0 to 100 scale) [20, 27]: 90
- Ryegrass, Italian plant response rating (0 to 100 scale) [21, 26]: 70
- Ryegrass, Italian plant response rating (0 to 100 scale) [21, 27]: 70
- Soybean plant response rating (0 to 100 scale) (soybean (Glycine max) [22]; [26]): 60
- Soybean plant response rating (0 to 100 scale) (soybean (Glycine max) [22]; [27]): 90
- Oat, Wild plant response rating (0 to 100 scale) [23, 26]: 90
- Oat, Wild plant response rating (0 to 100 scale) [23, 27]: 90
- Barnyardgrass plant response rating (0 to 100 scale) [24, 26]: 90
- Barnyardgrass plant response rating (0 to 100 scale) [24, 27]: 90
- Amaranth, Palmer / Pigweed, Palmer plant response rating (0 to 100 scale) [25, 26]: 90
- Amaranth, Palmer / Pigweed, Palmer plant response rating (0 to 100 scale) [25, 27]: 90
